Values joined by “and” are separate entries in the source; they are usually repeats but may differ in a detail not shown here. Identical values can stand only once. Like-named read-outs stand apart in the source and are kept apart here.
What was measured:
[1] = Metabolic stability in human liver microsomes; assay type: in vitro ADME; conditions: HLM, 37°C, 1 h; percentage of compound not metabolized
Experimental: The incubation mixture (total volume of 500 μL) was constituted by the following components: HLM (0.2 mg/mL), a NADPH regenerating system (NADPH 0.2 mM, […] 1 mM, D-glucose-6-phosphate 4 mM, 4 unit/mL glucose-6-phosphate dehydrogenase and MgCl2 48 mM), 50 μM of each compound in DMSO and phosphate buffer (pH 7.4, 25 mM, up to a final volume of 500 μL). The mixture was incubated at 37°C for 1 h. The reaction was cooled down and quenched with acetonitrile (1.0 mL). After centrifugation (4000 rpm, 10 min), the supernatant was taken, dried under nitrogen flow, suspended in 100 μL of methanol and analyzed by UV/LC-MS to determine the percentage of compound that was not metabolized.

[2] = test system: HSV-2; assay: HSV-2 plaque reduction assay on Vero cells; assay type: cell-based; conditions: for EC50 / EC90: Human alphaherpesvirus 2, Vero; for EC50: read-out: HSV-2 EC50; for EC90: read-out: HSV-2 EC90; for SI (CC50/EC50), HSV-2: Vero cells
Experimental: Clinical isolates of HSV-1 and HSV-2 were kindly provided by Prof. M. Pistello, University of Pisa, Italy. HSV-1 and HSV-2 strains were propagated and titrated by plaque assay on Vero cells. A HSV-2 strain with phenotypic resistance to acyclovir was generated by serial passage in the presence of increasing concentrations of acyclovir, as previously described.
The effect of the rhodanine derivatives on HSV infection was evaluated by plaque reduction assay. Vero cells were pre-plated 24 h in advance in 24-well plates at a density of […]. Increasing concentrations of compounds were mixed with HSV-2 (MOI 0.001 pfu/cell) or HSV-2 acyclovir resistant (MOI 0.001) or HSV-1 (MOI 0.0005) or and incubated for 1 hour at 37°C. The mixtures were subsequently added to the cells, which were then incubated at 37°C for 2 h. The virus inoculum was then removed and the cells washed and overlaid with a medium containing 1.2% methylcellulose (Sigma). After further incubation at 37°C for 24 h (HSV-2 and HSV-2 R Acy) or 48 h (HSV-1), cells were fixed and stained with 0.1% crystal violet in 20% ethanol and viral plaques counted. The effective concentration producing 50% reduction (EC50) and 90% reduction (EC90) in plaque formation was determined using Prism software by comparing drug-treated with wells treated with medium and solvent. The selectivity index (SI) was calculated by dividing the CC50 by the EC50 value.
All results are presented as the mean values from three independent experiments. The EC50 values for inhibition curves were calculated by regression analysis using the software GraphPad Prism (GraphPad Software, San Diego, California, U.S.A.) by fitting a variable slope-sigmoidal dose–response curve. Acyclovir was purchased from Sigma Aldrich (Milan, Italy).

[3] = Vero cell viability (MTS assay); assay type: cell-based; conditions: African green monkey
Experimental: African green monkey fibroblastoid kidney cells (Vero, ATCC CCL-81) were grown as monolayers in Eagle's minimal essential medium (MEM) (Gibco/BRL, Gaithersburg, MD) supplemented with 10% heat inactivated fetal calf serum (FCS) and 1% antibiotic-antimycotic solution (Zell Shield, Minerva Biolabs GmbH, Berlin, Germany).
Cell viability was measured using the MTS [3-(4,5-dimethylthiazol-2-yl)-5-(3-carboxymethoxyphenyl)-2-(4-sulfophenyl)-2H-tetrazolium] assay. Cell cultures were seeded in 96-well plates were incubated with different concentrations of compounds in triplicate under the same experimental conditions described for the antiviral assays. Cell viability was determined using the CellTiter 96 Proliferation Assay Kit (Promega, Madison, WI, USA) according to the manufacturer's instructions. Absorbances were measured using a Microplate Reader (Model 680, BIORAD) at 490 nm. The effect on cell viability at different concentrations of the compound was expressed as a percentage, by comparing absorbances of treated cells with those of cells incubated with culture medium and equal volumes of vehicle.

[4] = target: human serum albumin (HSA) (Homo sapiens, UniProt P02768); assay: Albumin binding fluorimetric assay, HSA; conditions: fluorescence quenching, 10 μM HSA
Experimental: The binding of each compounds to HSA (human serum albumin) and BSA (bovine serum albumin) were monitored by fluorescence spectroscopy in order to determine the dissociation constant (Kd). A quantitative analysis of the potential interaction was performed by fluorimetric analysis using 96 multiwell plates: in each well a fixed concentration of HSA or BSA (10μM in phosphate buffer 1 mM), was added with different amounts of tested compound (0.1μM to 500μM by stock solutions in DMSO). […] The obtained fluorescence quenching percentages were plotted against drug concentrations and the relative Kd values were obtained using GraphPad software (version 6.0).

[5] = test system: HIV-1 NL4.3 (CXCR4-tropic strain); assay: Antiviral activity on TZM-bl cells infected with HIV-1 NL4.3 (CPRG assay); assay type: cell-based; conditions: TZM-bl cells
Experimental: After 48 h of incubation, the medium was removed and viral infection was quantified using a β-galactosidase (CPRG) assay (Roche). Twenty thousand TZM-bl cells/well were seeded in 96-well plates in complete DMEM supplemented with 30 μg/mL DEAE-dextran (Sigma-Aldrich). […] Vehicle (0.1% dimethyl sulfoxide [DMSO])-treated cells served as a negative control. […] After 2 days, viral infection was quantified using a CPRG assay (Roche). […] To evaluate the cell toxicity of the compounds, the metabolic XTT [2,3-bis-(2-methoxy-4-nitro-5-sulfophenyl)-2H-tetrazolium-5-carboxanilide] test (Sigma-Aldrich) was performed according to the manufacturer’s instructions.

[6] = Parallel Artificial Membrane Permeability Assay (PAMPA); assay type: in vitro ADME; conditions: pH 7.4, 5 h
Experimental: Donor solution (0.5 mM) was prepared by diluting 1 mM dimethylsulfoxide (DMSO) compound stock solution using phosphate buffer (pH 7.4, 0.025 M). Filters were coated with 5 μL of a 1% (w/v) dodecane solution of L-α-phosphatidylcholine. Donor solution (150 μL) was added to each well of the filter plate. To each well of the acceptor plate were added 300 μL of solution (50% DMSO in phosphate buffer). All compounds were tested in three different plates on different days. The sandwich was incubated for 5 h at room temperature under gentle shaking. After the incubation time, the plates were separated, and samples were taken from both receiver and donor sides and analyzed using UV/HPLC-MS gradient method above reported. Permeability (Papp) for PAMPA, were calculated according to the following equation, obtained from Wohnsland and Faller and Sugano [37] equation with some modification in order to obtain permeability values in cm s-1, Papp=VDVA/(VD+VA)At−ln(1−r) where VA is the volume in the acceptor well, VD is the volume in the donor well (cm^3), A is the “effective area” of the membrane (cm^2), t is the incubation time (s) and r the ratio between drug concentration in the acceptor and equilibrium concentration of the drug in the total volume (VD+VA). Drug concentration is estimated by using the peak area integration.

[7] = Vero cells, HSV-2 assay conditions, read-out: Citotoxicity (Vero cells) CC50
[8] = Human immunodeficiency virus 1, NL43, TZM-bl, pre-incubation in complete medium containing fetal bovine serum (FBS), read-out: NL4-3 EC50 a
[9] = Human immunodeficiency virus 1, NL43, TZM-bl, pre-incubation with virus without serum, read-out: NL4-3 EC50

human serum albumin (HSA), sequence (P02768 25-609): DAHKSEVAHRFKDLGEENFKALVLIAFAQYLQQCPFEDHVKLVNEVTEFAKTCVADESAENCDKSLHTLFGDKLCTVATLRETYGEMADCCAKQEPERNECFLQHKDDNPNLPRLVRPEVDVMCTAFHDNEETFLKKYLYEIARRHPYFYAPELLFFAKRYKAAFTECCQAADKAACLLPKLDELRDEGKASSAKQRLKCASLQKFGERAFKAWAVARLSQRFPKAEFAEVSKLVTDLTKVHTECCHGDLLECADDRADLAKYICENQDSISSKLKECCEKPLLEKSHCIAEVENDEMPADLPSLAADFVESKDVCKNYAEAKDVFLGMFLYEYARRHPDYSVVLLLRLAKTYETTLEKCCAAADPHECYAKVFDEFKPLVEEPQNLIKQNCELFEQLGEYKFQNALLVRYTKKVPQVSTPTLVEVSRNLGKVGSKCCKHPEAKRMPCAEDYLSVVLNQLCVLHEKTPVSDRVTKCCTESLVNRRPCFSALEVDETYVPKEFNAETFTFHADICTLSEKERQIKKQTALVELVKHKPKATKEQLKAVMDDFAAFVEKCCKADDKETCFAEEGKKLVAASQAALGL

Compound | Metabolic Stability [1] [%] | EC50 [2] [nM] | EC90 [2] [nM] | SI (CC50/EC50), HSV-2 [2] | CC50 ([3]; Vero cell CC50 (HSV-2 acyclovir resistant rows)) [µM] | CC50 ([3]; Vero cells, HSV-1 assay conditions, read-out: Vero cell CC50 (HSV-1)) [µM] | CC50 [3, 7] [µM] | Kd [4] [nM] | EC50 [5, 8] [nM] | EC50 [5, 9] [nM] | Papp [6] | EC50 ([5]; Human immunodeficiency virus 1, TZM-bl, pre-incubation with FBS, read-out: EC50 against NL4.3 strain in presence of serum) [nM] | EC50 ([5]; pre-incubation with virus without serum, read-out: NL4-3 EC50) [nM]
O=C(O)c1ccc(-c2ccc(/C=C3\SC(=S)N(Cc4ccc(Cl)cc4)C3=O)o2)cc1O [Compound 2] | >90 | 11.9 ± 5.73 | 481 ± 299 | 9400 and 9403 | 112 ± 11.6 | 98 ± 23.1 | 112 ± 11.6 | 960 ± 100 | 190 ± 9 | 4 | 1.26 1·10^-6cm/sec |  | 
O=C(O)c1ccc(-c2ccc(/C=C3\SC(=S)N(Cc4ccc(Cl)c(F)c4)C3=O)o2)cc1O [Compound 9f, (Z)-4-(5-((3-(4-chloro-3-fluorobenzyl)-4-oxo-2-thioxothiazolidin-5-ylidene)methyl)furan-2-yl)-2-hydroxybenzoic acid] | >90 | 26.4 ± 11.1 | 153 ± 159 | 298 |  |  | 7.87 ± 2.98 | 2230 ± 1200 | 570 ± 9 | 17 ± 2 | 0.87 1·10^-6cm/sec |  | 
O=C(O)c1ccc(-c2ccc(/C=C3\SC(=S)N(CCc4ccc(F)cc4)C3=O)o2)cc1O [Compound 9a, (Z)-4-(5-((3-(4-fluorophenethyl)-4-oxo-2-thioxothiazolidin-5-ylidene)methyl)furan-2-yl)-2-hydroxybenzoic acid] | >90 | 345 ± 168 | 426 ± 56.3 | >869 |  |  | > 300 | 1510 ± 200 | 204 ± 12 | 5.4 | 0.4 1·10^-6cm/sec |  | 
CCc1ccc(CCN2C(=O)/C(=C/c3ccc(-c4ccc(C(=O)O)c(O)c4)o3)SC2=S)cc1 [Compound 9d, (Z)-4-(5-((3-(4-ethylphenethyl)-4-oxo-2-thioxothiazolidin-5-ylidene)methyl)furan-2-yl)-2-hydroxybenzoic acid] | >90 | 28.7 ± 7.11 | 140 ± 61.2 | 600 and 604.3 |  |  | 16.9 ± 4.31 | 1090 ± 900 | 228 ± 10 | 23.4 ± 3 | 1.50 1·10^-6cm/sec |  | 
Cc1ccc(CCN2C(=O)/C(=C/c3ccc(-c4ccc(C(=O)O)c(O)c4)o3)SC2=S)cc1 [Compound 9b, (Z)-2-hydroxy-4-(5-((3-(4-methylphenethyl)-4-oxo-2-thioxothiazolidin-5-ylidene)methyl)furan-2-yl)benzoic acid] | >90 | 4.89 ± 1.59 | 57.8 ± 22.6 | 2209 |  |  |  | 1570 ± 200 | 457 ± 5 | 23 ± 4 | 2.32 1·10^-6cm/sec |  | 
O=C(O)c1ccc(-c2ccc(/C=C3\SC(=S)N(CCCc4ccccc4)C3=O)o2)cc1O [Compound 9c, (Z)-2-hydroxy-4-(5-((4-oxo-3-(3-phenylpropyl)-2-thioxothiazolidin-5-ylidene)methyl)furan-2-yl)benzoic acid] | >90 | 52 ± 21.2 | 422 ± 225 | 3936 |  |  | 205 ± 30.1 | 1190 ± 100 | 457 ± 11 | 15.3 ± 2 | 1.23 1·10^-6cm/sec |  | 
O=C(O)c1ccc(-c2ccc(/C=C3\SC(=S)N(c4ccc(F)c(Cl)c4)C3=O)o2)cc1O [Compound 9e, (Z)-4-(5-((3-(3-chloro-4-fluorophenyl)-4-oxo-2-thioxothiazolidin-5-ylidene)methyl)furan-2-yl)-2-hydroxybenzoic acid] | >90 | 50.3 ± 10.5 | 206 ± 85.5 | >1988 |  |  | > 100 | 2190 ± 1000 | 420 ± 7 | 30 ± 1 | 0.92 1·10^-6cm/sec |  | 
O=C(O)c1ccc(-c2ccc(/C=C3\SC(=S)N(Cc4ccc(F)cc4)C3=O)o2)cc1O [Compound 1] | >90 | 168 ± 143 | 2110 ± 918 |  |  |  | 224 ± 78.5 | 630 ± 100 | 2951 ± 15 | ~50 | 1.28 1·10^-6cm/sec | 3000 | 49.5 ± 2

From paper PMC5988308, “Rhodanine derivatives as potent anti-HIV and anti-HSV microbicides” (PLoS ONE, 2018)
